The values below come from patent US12370255B2, “Peptide-based vaccines, methods of manufacturing, and uses thereof for inducing an immune response” (Barinthus Biotherapeutics North America, Inc., priority 2017, dated 2025).

Entries after “also recorded” stand apart in the source; their conditions may differ. *1 amine or outer side, *2 acyl side, *3 side chain or, on linkers, in order; H or OH if unused. Where a SMILES comes first, the peptide text is derived from it. Where no end group is shown, it is not given here. Side-chain parts run from the residue outwards. The star is where a group is joined. 2B = 1-(4-aminobutyl)-2-butyl-1H-imidazo[4,5-c]quinolin-4-amine, CCCCc1nc2c(N)nc3ccccc3c2n1CCCCN*; X2 = CCCCNc1nc(N)c2nc(O)n(Cc3ccc(C(=O)NCC(=O)NCCCn4nnc5c4-c4ccccc4N(*)Cc4ccccc4-5)cc3)c2n1; X1 = C1=C\c2ccccc2N(*)Cc2ccccc2/1; Suc = O=C(CCC(=O)[*:2])[*:1]

For one series, the system named is T cells. Put plainly: T cell responses in vivo induced by peptide antigen conjugates. The settings on record: immunogenic compositions of peptide antigen conjugates. The source says: FIG. 37 discloses SEQ ID NOS 580-585, respectively, in order of appearance.
FIG. 38 discloses SEQ ID NOS 586-602, respectively, in order of appearance.
FIG. 39 discloses SEQ ID NOS 603-605 and 605, respectively, in order of appearance.
FIG. 40 discloses SEQ ID NOS 606-610, respectively, in order of appearance.
FIG. 41 discloses SEQ ID NOS 603-605, 103 and 611, respectively, in order of appearance.
FIG. 42 discloses SEQ ID NO: 104.
FIG. 45 discloses SEQ ID NOS 619, 620, 619, 621, 180 and 622, respectively, in order of appearance.

Another series relates to CD8 T cells. Put plainly: antigen-specific CD8 T cell responses (% IFNg+ of total CD8 T cells) from whole blood of immunized mice. Conditions: native LP neoantigen admixed with pICLC; immunized days 0 and 14, day 28. It counts as in vivo.
Series [1] can be described thus: hydrodynamic behavior: water solubility, particle size by dynamic light scattering and turbidity in PBS pH 7.4. The settings on record: aqueous buffer at pH about 7.4. It counts as physicochemical. The source says:
FIG. 4: Molecular weight and hydrodynamic behavior of peptide antigens (A) and peptide antigen conjugates delivering peptide antigens (A) comprised of either synthetic long peptides (SLP or “LP”) or minimal (“Min”) CD8 T cell epitopes derived from the MC38 tumor cell line. […] FIG. 4 discloses SEQ ID NOS 190-199, 623 and 200, respectively, in order of appearance. FIG. 18: Impact of peptide antigen conjugate net charge and hydrophobic molecule composition on hydrodynamic behavior. The hydrodynamic behavior of a range of different peptide antigen conjugates of Formula V at 0.1 mg/mL or 0.5 mg/mL in PBS at a pH of 7.4 was assessed by dynamic light scattering. […] Turbidity was determined by measuring the absorbance of the solution at 490 nm. […] (A) The impact of net charge on the hydrodynamic behavior of a range of different peptide antigen conjugates of Formula V suspended at 0.1 mg/mL or 0.5 mg/mL in PBS at a pH of 7.4 was assessed by dynamic light scattering. […] The hydrodynamic behavior of a range of different peptide antigen conjugates suspended at 0.1 mg/mL in PBS at a pH of 7.4 was assessed by dynamic light scattering. […] Particle size was assessed by dynamic light scattering with the peptide antigen conjugate suspended at 0.5 mg/mL in PBS at a pH of 7.4. […] Solubility can be determined by visual inspection, by turbidity measurements or by dynamic light scattering.

From the text for CD8 T cells: Mice (N=5 per group) were immunized with different immunogenic compositions comprising peptide antigens (A) based on either the synthetic long peptide (LP, sometimes referred to as “SLP”) or the minimal CD8 T cell epitope (Min, sometimes referred to as ME) of the antigen Irgq derived from the MC38 tumor cell line either as the peptide antigen (A) alone admixed with the TLR-7/8a adjuvant; as the peptide antigen (A) linked to a hydrophobic molecule (H), W3, and admixed with the TLR-7/8a adjuvant; or as the peptide antigen (A) linked to a hydrophobic molecule (H) co-delivering a TLR-7/8a adjuvant, 2BXy3. Mice were immunized at days 0 and 14 and antigen-specific CD8 T cell responses (% IFNg+ of total CD8 T cells) were assessed from whole blood at days 0 and 25. Open circles indicate that the peptide antigen (A) was soluble (i.e. non-particulate), whereas closed circles indicate that the mice received a particulate immunogenic composition of the peptide antigen (A).
Mice (N=5 per group) were immunized with different immunogenic compositions comprising peptide antigens (A) based on either the synthetic long peptide (LP) or minimal CD8 T cell epitope (Min) of the antigen Cpne1 derived from the MC38 tumor cell line either as the peptide antigen (A) alone admixed with the TLR-7/8a adjuvant; as the peptide antigen (A) linked to a hydrophobic molecule (H), W3, and admixed with the TLR-7/8a adjuvant; or as the peptide antigen (A) linked to a hydrophobic molecule (H) co-delivering a TLR-7/8a adjuvant, 2BXy3. Mice were immunized at days 0 and 14 and antigen-specific CD8 T cell responses (% IFNg+ of total CD8 T cells) were assessed from whole blood at days 0 and 25. […]
Mice (N=5 per group) were immunized with immunogenic compositions comprising 4 unique peptide antigen conjugates delivering a distinct MC38 tumor derived minimal CD8 T cell epitopes (40 total epitopes) that were linked to either 2BXy5 or 2B5 hydrophobic molecules (H). Mice were immunized at days 0 and 14 and antigen-specific CD8 T cell responses (% IFNg+ of total CD8 T cells) were assessed from whole blood at day 24.

Regarding `CCCCNc1nc(N)c2nc(O)n(Cc3ccc(C(=O)NCC(=O)NCCCn4nnc5c4-c4ccccc4N(C(=O)CCC(=O)NCCCCC(NC(=O)CNC(=O)CCC(=O)N4Cc6ccccc6/C=C\c6ccccc64)C(=O)NCC(=O)NC(Cc4c[nH]c6ccccc46)C(=O)NC(Cc4c[nH]c6ccccc46)C(=O)NC(Cc4c[nH]c6ccccc46)C(=O)NC(Cc4c[nH]c6ccccc46)C(=O)NC(Cc4c[nH]c6ccccc46)C(N)=O)Cc4ccccc4-5)cc3)c2n1` (centres unmarked) [Compound 30] ({X1-Suc}-GK([Suc-X2])GWWWWW-NH2; configuration not given here), in the series with T cells, the “T cell responses in vivo (in words)” value is “highest magnitude responses”. The same measure, in the same setting: the value for `CCCCc1nc2c(N)nc3ccccc3c2n1CCCCNC(=O)CCC(NC(=O)C(Cc1c[nH]c2ccccc12)NC(=O)C(CCC(=O)NCCCCn1c(CCCC)nc2c(N)nc3ccccc3c21)NC(=O)C(Cc1c[nH]c2ccccc12)NC(=O)C(CCC(=O)NCCCCn1c(CCCC)nc2c(N)nc3ccccc3c21)NC(=O)CCC(=O)N1Cc2ccccc2-c2c(nnn2CCCCC(=O)NC(CCCCN)C(=O)NC(CCCCN)C(=O)NC(CCCCN)C(=O)NC(CCCCN)C(=O)NC(CCCCN)C(=O)NC(CCCCN)C(=O)NC(CCCCN)C(=O)NC(CCCCN)C(=O)NC(CCCCN)C(=O)NC(CCCCN)C(N)=O)-c2ccccc21)C(N)=O` (centres unmarked) [Compound 42] was “high magnitude T cell immunity”. On to “Adpgk: native LP neoantigen from MC38 that assembles into particles; minimal epitope Ala-Ser-Met-Thr-Asn-Met-Glu-Leu-Met (ASMTNMELM)”, for which the “CD8 T cell responses (in words)” value with CD8 T cells is reported as “significant increase in CD8 T cell responses over background; also recorded: immunogenic”. Regarding “Compound 16 (GGE(2B)GGE(2B)GGE(2B)GGE(2B)GGE(2B); also: DBCO)”, the “particle formation and stability (in words)” value in series [1] is recorded as “formed stable nanoparticle micelles”. The “T cell responses in vivo (in words)” value in the series on T cells is given as “high magnitude T cell responses”. For “Compound 20 (KGWGWGKGWGWGKGWGWGKGWGWGKGWGWG; not fully specified (residues 1, 7, 13, 19, 25))”, the “particle formation and stability (in words)” value in series [1] is reported as “formed stable nanoparticle micelles”. Besides, the “T cell responses in vivo (in words)” value in the series on T cells is “high magnitude T cell responses”. Take “Cpne1: native LP neoantigen derived from the MC38 tumor cell line, water soluble; minimal epitope Ser-Ser-Pro-Tyr-Ser-Leu-His-Tyr-Leu (SSPYSLHYL)”: in the series on CD8 T cells, the “CD8 T cell responses (in words)” value is reported as “no CD8 T cell responses”.
